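Step 1: Grow cells in 96-well plates. Step 2: Expose to compound for 48 hours at 5 concentrations. Step 3: Interpolate endpoints linearly; if unreached, use highest concentration. The concentration for full growth arrest is given as TGI.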
Key:
Assay in all cases: NCI-60 cell line screen, 48 h
[1] = system: HCC-2998 colon
[2] = system: SK-MEL-5 melanoma
[3] = system: MDA-N
[4] = system: SF-295 CNS
[5] = system: KM12 colon
[6] = system: HL-60(TB) leukemia
[7] = system: HCT-116 colon
[8] = system: HOP-92 NSCLC
[9] = system: SF-268 CNS
[10] = system: SN12C renal

Q: Which TGI [1] does the source give for CC(C)CCCC(C)[C@H]1CC[C@H]2NCCCC[C@]12C (stereo not given in full) here?
A: 2.72 µM

Q: What about the TGI [2] of the same molecule?
A: 3.39 µM

Q: And the TGI [3]?
A: 3.99 µM

Q: And the TGI [4]?
A: 5.2 µM

Q: What about the TGI [5] of the same molecule?
A: 6.96 µM

Q: What about the TGI [6] of the same molecule?
A: 5.91 µM

Q: And the TGI [7]?
A: 20 µM

Q: What about the TGI [8] of the same molecule?
A: 15.5 µM

Q: And the TGI [9]?
A: 32.2 µM

Q: What about the TGI [10] of the same molecule?
A: 18.7 µM

Q: Which results are given for CCOC(=O)c1nc2ccccc2nc1Nc1ccc(F)cc1?
A: TGI [1]: > 100 µM; TGI [2]: > 100 µM; TGI [3]: > 100 µM; TGI [4]: 28.9 µM; TGI [5]: > 100 µM; TGI [6]: > 100 µM; TGI [7]: > 69.3 µM; TGI [8]: 43.9 µM; TGI [9]: 30 µM; TGI [10]: > 100 µM

Q: CN1C(=O)C(CCO)(C(C)(C)C)c2ccccc21 (stereo not given) was tested. Which TGI [1] did it give?
A: > 100 µM

Q: And the TGI [2]?
A: > 100 µM

Q: What about the TGI [3] of the same molecule?
A: > 100 µM

Q: And the TGI [4]?
A: > 100 µM

Q: What about the TGI [5] of the same molecule?
A: > 100 µM

Q: What about the TGI [6] of the same molecule?
A: > 100 µM

Q: What about the TGI [7] of the same molecule?
A: > 100 µM

Q: And the TGI [8]?
A: > 100 µM

Q: What about the TGI [9] of the same molecule?
A: > 100 µM

Q: And the TGI [10]?
A: > 100 µM

Q: Which results are given for C=C1CC(Cn2cc(Br)c(=O)[nH]c2=O)(c2ccc(Br)cc2)OC1=O (stereo not given)?
A: TGI [1]: 8.4 µM; TGI [2]: 7.5 µM; TGI [3]: 7.46 µM; TGI [4]: 31 µM; TGI [5]: > 38.7 µM; TGI [6]: 2.74 µM; TGI [7]: 2.75 µM; TGI [8]: 2.96 µM; TGI [9]: 41.3 µM; TGI [10]: 20.8 µM

Q: How did the TGI [1] turn out when O=C1/C(=C/c2cccs2)N=C(c2ccccc2)N1c1nc2ccccc2s1 was run?
A: > 100 µM

Q: What about the TGI [2] of the same molecule?
A: > 100 µM

Q: And the TGI [3]?
A: > 100 µM

Q: And the TGI [4]?
A: > 100 µM

Q: And the TGI [5]?
A: > 100 µM

Q: And the TGI [6]?
A: > 100 µM

Q: And the TGI [7]?
A: > 100 µM

Q: What about the TGI [8] of the same molecule?
A: > 100 µM

Q: What about the TGI [9] of the same molecule?
A: 29.8 µM

Q: What about the TGI [10] of the same molecule?
A: > 100 µM

Q: Which results are given for CCCCCCCCCCC[N+]1(Cc2ccccc2)CC2CCN(Cc3ccccc3)CC2C1 (stereo not given)?
A: TGI [1]: 2 µM; TGI [2]: 0.357 µM; TGI [3]: 1.25 µM; TGI [4]: 2.28 µM; TGI [5]: 0.902 µM; TGI [6]: 0.277 µM; TGI [7]: 1.45 µM; TGI [8]: 1.62 µM; TGI [9]: 2.13 µM; TGI [10]: 1.5 µM

Q: For CCOc1ccccc1N=NC1C(=O)N(C(=O)CC(=O)Nc2ccccc2OC)N=C1C (stereo not given), which TGI [1] is on record?
A: > 100 µM

Q: What about the TGI [2] of the same molecule?
A: > 100 µM

Q: What about the TGI [3] of the same molecule?
A: > 100 µM

Q: And the TGI [4]?
A: 55.6 µM

Q: And the TGI [5]?
A: > 100 µM

Q: And the TGI [6]?
A: > 100 µM

Q: And the TGI [7]?
A: > 100 µM

Q: And the TGI [8]?
A: 56.8 µM

Q: What about the TGI [9] of the same molecule?
A: 68.8 µM

Q: What about the TGI [10] of the same molecule?
A: > 100 µM

Q: Which TGI [1] does the source give for Cn1c(=O)[nH]n(-c2ccc3ccccc3c2)c1=O here?
A: > 100 µM

Q: What about the TGI [2] of the same molecule?
A: > 100 µM

Q: What about the TGI [3] of the same molecule?
A: > 100 µM

Q: What about the TGI [4] of the same molecule?
A: > 100 µM

Q: What about the TGI [5] of the same molecule?
A: > 100 µM

Q: What about the TGI [6] of the same molecule?
A: > 100 µM

Q: What about the TGI [7] of the same molecule?
A: > 100 µM

Q: What about the TGI [8] of the same molecule?
A: > 100 µM

Q: What about the TGI [9] of the same molecule?
A: > 100 µM

Q: What about the TGI [10] of the same molecule?
A: > 100 µM

Q: O=C1/C(=C(/Br)I)c2ccccc2-c2ccccc21 was tested. Which TGI [1] did it give?
A: 11.4 µM

Q: And the TGI [2]?
A: 31.1 µM

Q: What about the TGI [3] of the same molecule?
A: 9.78 µM

Q: What about the TGI [4] of the same molecule?
A: 31.4 µM

Q: What about the TGI [5] of the same molecule?
A: 32 µM

Q: And the TGI [6]?
A: 0.516 µM

Q: And the TGI [7]?
A: 25.2 µM

Q: And the TGI [8]?
A: 8.07 µM

Q: What about the TGI [9] of the same molecule?
A: 31.1 µM

Q: And the TGI [10]?
A: 33.7 µM

Q: Which TGI [1] does the source give for CCn1c(O)c(C(=O)NC(C)c2ccc([N+](=O)[O-])cc2)c(=O)n(CC)c1=S (stereo not given) here?
A: 10.7 µM

Q: And the TGI [2]?
A: 11.3 µM

Q: What about the TGI [3] of the same molecule?
A: 13.6 µM

Q: And the TGI [4]?
A: 3.7 µM

Q: What about the TGI [5] of the same molecule?
A: 5.58 µM

Q: And the TGI [6]?
A: 5.11 µM

Q: What about the TGI [7] of the same molecule?
A: 4.45 µM

Q: What about the TGI [8] of the same molecule?
A: 8.48 µM

Q: And the TGI [9]?
A: 15.3 µM

Q: And the TGI [10]?
A: 15 µM

Q: Which TGI [1] does the source give for CCOC(=O)c1c(SCCN2CCCCC2)n(-c2ccccc2)c(=S)n(-c2ccccc2)c1=O here?
A: > 53.4 µM

Q: What about the TGI [2] of the same molecule?
A: 29.7 µM

Q: What about the TGI [3] of the same molecule?
A: 36.9 µM

Q: What about the TGI [4] of the same molecule?
A: > 100 µM

Q: And the TGI [5]?
A: 35 µM

Q: And the TGI [6]?
A: > 33.8 µM

Q: And the TGI [7]?
A: 4.89 µM

Q: What about the TGI [8] of the same molecule?
A: 30.8 µM

Q: And the TGI [9]?
A: > 75.4 µM

Q: What about the TGI [10] of the same molecule?
A: 37.5 µM

Q: Which results are given for O=C(c1ccccc1)c1ccc2nc(-c3c(Cl)c(Cl)c(Cl)c(Cl)c3C(=O)Nc3ccco3)[nH]c2c1?
A: TGI [1]: 53.1 µM; TGI [2]: > 100 µM; TGI [3]: 41 µM; TGI [4]: > 100 µM; TGI [5]: > 100 µM; TGI [6]: 98.3 µM; TGI [7]: > 100 µM; TGI [8]: > 100 µM; TGI [9]: > 100 µM; TGI [10]: > 100 µM

Q: With CC(=O)NC1C(OCc2ccccc2)OC(CO)C(O)C1OCC(=O)N[C@@H](C)C(=O)N[C@H](CCC(=O)NCCCCNc1c2ccccc2nc2cccc([N+](=O)[O-])c12)C(N)=O (stereo not given in full) as the molecule, how does the TGI [1] read?
A: 2.91 µM

Q: What about the TGI [2] of the same molecule?
A: 2.58 µM

Q: What about the TGI [3] of the same molecule?
A: 4.15 µM

Q: What about the TGI [4] of the same molecule?
A: 37.3 µM

Q: What about the TGI [5] of the same molecule?
A: 5.32 µM

Q: What about the TGI [6] of the same molecule?
A: > 100 µM

Q: What about the TGI [7] of the same molecule?
A: 10 µM

Q: And the TGI [8]?
A: 4.45 µM

Q: What about the TGI [9] of the same molecule?
A: 14.5 µM

Q: What about the TGI [10] of the same molecule?
A: 14.5 µM

Q: How did the TGI [1] turn out when CC(=O)Nc1nc(C)c(S(=O)(=O)NC(=O)N2c3ccccc3CCc3ccccc32)s1 was run?
A: > 100 µM

Q: What about the TGI [2] of the same molecule?
A: > 100 µM

Q: What about the TGI [3] of the same molecule?
A: > 100 µM

Q: What about the TGI [4] of the same molecule?
A: > 100 µM

Q: What about the TGI [5] of the same molecule?
A: > 100 µM

Q: What about the TGI [6] of the same molecule?
A: > 100 µM

Q: What about the TGI [7] of the same molecule?
A: > 100 µM

Q: And the TGI [8]?
A: > 100 µM

Q: What about the TGI [9] of the same molecule?
A: > 100 µM

Q: And the TGI [10]?
A: > 100 µM

Reference: PubChem BioAssay (NCI)
